In paper PMC11249626, “Fluorophore-Labeled Pyrrolones Targeting the Intracellular Allosteric Binding Site of the Chemokine Receptor CCR1” (ACS Pharmacology & Translational Science, 2024):

Target: T1, CXCR1 (Homo sapiens, UniProt P25024)
T1 construct: host or cells: HEK293T, transient
T1 sequence (P25024 1-350): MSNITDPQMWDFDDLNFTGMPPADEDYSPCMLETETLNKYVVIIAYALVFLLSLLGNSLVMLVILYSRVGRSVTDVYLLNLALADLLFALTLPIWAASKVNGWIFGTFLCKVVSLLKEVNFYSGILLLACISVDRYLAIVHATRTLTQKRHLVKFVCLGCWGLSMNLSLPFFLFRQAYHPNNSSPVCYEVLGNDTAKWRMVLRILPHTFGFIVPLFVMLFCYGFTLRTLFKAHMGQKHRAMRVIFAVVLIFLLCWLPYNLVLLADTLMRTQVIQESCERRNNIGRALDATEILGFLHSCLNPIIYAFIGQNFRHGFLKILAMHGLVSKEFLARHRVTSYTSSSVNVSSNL
Assay: Membrane-based NanoBRET saturation binding assay, CXCR1_Nluc membranes
Experimental: Emission spectra of Nluc -labeled CCR1 (CCR1_Nluc) protein: The emission spectra of CCR1_Nluc has already been reported by Toy et al.1 For a confirmation of the reported data with new CCR1_Nluc membrane batches, furimazine (Promega, Mannheim, Germany 1:2000) was added to the membrane preparations (2 µg protein/well). […]
NanoBRET binding assays: Membrane-based NanoBRET saturation assay: For the establishment of our NanoBRET binding assay, we referred to recently published protocols. […]
Then, 20 µL of the membrane preparations diluted in assay buffer (3 µg total protein/well) were added and the plates were incubated for 90 min at 37 °C. Subsequently, 5 µL of a furimazine solution (Promega, Mannheim, Germany, final assay dilution: 1:5,000) were added to each well (final assay volume: 35 µL) before measuring luminescence with a CLARIOstar microplate reader using 620/10 nm and 475/30 nm emission filters after 5 min of incubation in the dark. Bioluminescence resonance energy transfer (BRET) was determined as the ratio of acceptor fluorescence and donor luminescence. […] Specific binding signals were calculated as a difference of total and non-specific binding. If required, netBRET values were calculated as the difference between total BRET values and the values obtained in the absence of a fluorescent ligand. […]

CN(C)c1ccc2c(-c3cc(C(=O)NCCOCCOCc4cn(CCCC(=O)C5=C(O)C(=O)N(c6ccc(Br)cc6F)C5C5CCCCC5)nn4)ccc3C(=O)[O-])c3ccc(=[N+](C)C)cc-3oc2c1 (stereo not shown) [compound 12]
Kd: 12.3 ± 0.3 µM
